Assay results taken from ChEMBL document CHEMBL3301472, “MMV Malaria Box HIV and cytotoxicity screening”.

How the values were obtained:
Assay type in all cases: toxicity, cell-based
[1] = MMV: MTT Cytotoxicity Assay Day 7 pi of Assay #11 (NO washout), U87-CD4-CXCR4 cells, % cell death @ 5mM compound; conditions: human, u87-cd4-cxcr4, 5000 µM
[2] = MMV: MTT Cytotoxicity Assay Day 7 pi of Assay #10 (NO washout), U87-CD4-CCR5 cells, % cell death @ 5mM compound; conditions: human, u87-cd4-ccr5, 5000 µM
[3] = MMV: MTT Cytotoxicity Assay Day 3 pi, U87-CD4-CCR5 cells, % cell death @ 5mM compound; conditions: human, u87-cd4-ccr5, 5000 µM
[4] = MMV: MTT Cytotoxicity Assay Day 7 pi of Assay #7 (compound washed out Day 1 pi), U87-CD4-CXCR4 cells, % cell death @ 5mM compound; conditions: human, u87-cd4-cxcr4, 5000 µM
[5] = MMV: MTT Cytotoxicity Assay Day 7 pi of Assay #6 (compound washed out Day 1 pi), U87-CD4-CCR5 cells, % cell death @ 5mM compound; conditions: human, u87-cd4-ccr5, 5000 µM
[6] = MMV: MTT Cytotoxicity Assay Day 3 pi, U87-CD4-CXCR4 cells, % cell death @ 5mM compound; conditions: human, u87-cd4-cxcr4, 5000 µM

Structure (SMILES)	% Cell Death [1]	% Cell Death [2]	% Cell Death [3]	% Cell Death [4]	% Cell Death [5]	% Cell Death [6]
O=C(Nc1ccc(Cl)c(Cl)c1)Nc1ccc(Cl)c(Cl)c1	116	89	82	82	54	59
c1ccc(/C2=N/c3ccccc3/N=C(/c3ccccc3)c3ccccc32)cc1	7	16	-3	-11	0	28
COc1cc(C(=O)Nc2ccc(-c3nc4ccccc4[nH]3)cc2)cc(OC)c1OC	-49	29	-27	-7	-4	29
O=C(CCl)NCCOc1ccc(Cl)cc1Cl	6	12	15	-8	-19	28
CC(Oc1ccc(NC(=O)c2cccs2)cc1)C(=O)c1ccc(Cl)cc1 (centres undefined)	-5	2	-10	60	40	1
CCCCNc1nc(NC(C)(C)C)nc(NC(C)(C)C)n1	-2	-7	-21	18	2	61
Cl.c1ccc2c(NCCCCCCNc3c4c(nc5ccccc35)CCCC4)c3c(nc2c1)CCCC3	9	34	12	-18	-1	32
COc1ccc(CNC(=O)c2cc3c(=O)n4ccccc4nc3n(CCc3ccccc3)c2=N)cc1	49	0	14	-14	-17	37
Brc1ccc(Nc2nc3ccccc3nc2Nc2ccc(Br)cc2)cc1	-26	28	15	-10	-14	20
O=C(NCCCN1CCC(N2CCCCC2)CC1)C1=Cc2cc(Br)ccc2OC1	-57	14	52	-28	31	10
CC(=O)c1sc(NC(=O)Nc2ccc(C)cc2C)nc1C	20	31	-1	-18	-30	45
Cl.Cn1c(=O)n(C)c2cc(CNCCNc3ccnc4cc(Cl)ccc34)ccc21	45	23	46	31	34	65
Cc1cc(Nc2ccc(OCc3ccccc3)cc2)nc2cc(O)ccc12	-7	-10	23	6	18	-46
O=C(Nc1ccc(-c2nc3ccccc3[nH]2)cc1)c1ccc(Cl)c(Cl)c1	-46	33	38	20	-9	39
Cc1ccccc1OCCSc1nc2ccc(NC(=O)c3cccs3)cc2s1	106	107	110	81	103	101
COc1ccc(C2C(C(=O)Nc3cccc(OC)c3)c3ccccc3C(=O)N2C2CCCCC2)cc1 (centres undefined)	37	-8	-65	22	18	15
CCOC(=O)c1cnc2ccc(Cl)cc2c1NCCCN(C)C	-22	-6	17	-14	3	26
O=C(Nc1ccc(C23CC4CC(CC(c5ccccc5)(C4)C2)C3)cc1)c1cccs1	109	77	107	98	109	95
CCOC(=O)c1cnc2c(C)cccc2c1Nc1ccc(C(C)=O)cc1	80	69	70	78	49	76
Cc1ccc2nc(C)cc(Nc3cccc(C(F)(F)F)c3)c2c1.Cl	44	72	-13	-9	15	38

Structure (SMILES)	% Cell Death [1]	% Cell Death [2]	% Cell Death [3]	% Cell Death [4]	% Cell Death [5]	% Cell Death [6]
CCc1ccc(CNCC(O)c2ccccc2)cc1.Cl (centres undefined)	38	2	-25	28	-3	37
COc1ccc(C(O)(CCC(C)C)C(CN2CCOCC2)c2ccc(Cl)cc2)cc1.Cl (centres undefined)	47	102	72	4	48	55
COc1ccc(-c2cc(=O)oc3c4c(ccc23)OCN(Cc2ccc(F)cc2)C4)cc1	-26	29	20	-9	16	21
CCOc1ccc2c(c1)CN(Cc1ccc(Cl)cc1)CO2	20	13	8	-14	11	32
CC(C)(C)c1ccc2c(c1)CN(Cc1ccc(Cl)cc1)CO2	-36	23	64	18	66	37
CCCCC(O)(c1ccc(Cl)cc1)C(CN1CCOCC1)c1ccc(Cl)cc1.Cl (centres undefined)	41	17	-6	-16	-10	36
COc1ccc(OC)c(C2C3=C(CC(C)(C)CC3=O)N(c3ccc(Cl)c(Cl)c3)C3=C2C(=O)CC(C)(C)C3)c1	3	-4	9	5	28	31
Cc1cc(=O)oc2c1ccc1oc(C(=O)c3ccccc3)c(C)c12	-19	35	10	-3	4	29
COc1ccc2c(c1OC)C(=O)N1c3ccccc3N=C(c3ccc(C)cc3)CC21 (centres undefined)	102	78	87	1	17	72
Oc1ccc(Br)cc1CN1CCN(Cc2ccc(Cl)cc2)CC1	44	46	27	29	12	69
COc1ccc(CCNC(=O)c2cc(S(=O)(=O)N3CC(C)CC(C)C3)ccc2Sc2ccc(F)cc2)cc1OC (centres undefined)	29	27	39	14	-8	39
Cc1ccc(F)cc1NC(=O)c1cc(Cl)ccc1Nc1ccccc1	-27	28	7	-2	8	25
OC1=C2C(=Nc3ccccc3SC2c2ccc(Br)cc2)c2ccccc21 (centres undefined)	0	30	11	7	-10	31
COc1cc(OC)cc(N2C(=O)N(Cc3ccc(C(C)(C)C)cc3)c3ccccc3S2(=O)=O)c1	64	39	34	-10	34	36
CCOc1c(Br)cc(C2C(C(=O)OC)=CN(C)C=C2C(=O)OC)cc1OC	30	30	30	19	-1	21
CCCCCn1c(=N)n(CC(O)COc2cccc(C)c2)c2ccccc21.Cl (centres undefined)	110	115	99	60	65	71
CC1CC2=C(CC1CNCCCN(C)C)C(C)(C)CCC2 (centres undefined)	-30	19	-1	23	-9	36
COc1ccccc1N1C(=N)SC(=Cc2ccc(OCc3ccccc3F)cc2)C1=O	24	30	17	7	23	24
CCN1CCN(c2c(C(=O)c3ccccc3)cnc3cc(OC)c(OC)cc23)CC1	99	47	43	-11	23	85
